# From ChEMBL document CHEMBL4725372, “Rational Design of Suprastat: A Novel Selective Histone Deacetylase 6 Inhibitor with the Ability to Potentiate Immunotherapy in Melanoma Models” (J Med Chem, 2020)
# Activity calls are given as the source filed them. No cut-off for these calls is given here.
# Legend:
# Histone deacetylase 11 = target: T1, Histone deacetylase 11 (Homo sapiens, UniProt Q96DB2); assay: Inhibition of human HDAC11 expressed in HEK293/T17 cells pre-incubated for 10 mins before […] addition and measured after 30 mins by fluorescence-based assay; type: cell-based
# T1 sequence (Q96DB2 whole entry): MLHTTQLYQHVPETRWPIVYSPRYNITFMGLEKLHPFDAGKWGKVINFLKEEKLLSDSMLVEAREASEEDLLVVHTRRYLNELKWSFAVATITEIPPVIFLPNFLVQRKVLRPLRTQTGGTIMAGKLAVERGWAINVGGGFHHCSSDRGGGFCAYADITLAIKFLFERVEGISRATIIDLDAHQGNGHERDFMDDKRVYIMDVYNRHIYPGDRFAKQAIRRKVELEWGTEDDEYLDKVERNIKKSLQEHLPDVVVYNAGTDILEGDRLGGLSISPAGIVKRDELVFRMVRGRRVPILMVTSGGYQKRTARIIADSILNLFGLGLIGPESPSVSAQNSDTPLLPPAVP
# [1] = Half life in SGF by LC-MS/MS analysis; type: ADME
# Mus musculus [2] = assay: Immunomodulatory activity in C57BL/6 mouse harboring mouse SM1 cells assessed as effect on CD4+ T cells at 25 mg/kg, ip dosed 5 days per week by flow cytometry; type: functional, organism-based; details: time 5.0 day/week
# Mus musculus [3] = assay: Immunomodulatory activity in C57BL/6 mouse harboring mouse SM1 cells assessed as effect on number of F4/80+ CD80+ H2+ antitumor M1 macrophages at 25 mg/kg, ip dosed 5 days per week before starting 15 mg/kg, ip anti-PD1 immune checkpoint blockade therapy by flow cytometry; type: functional, organism-based; details: time 5.0 day/week
# [4] = target: T2, Protein deacetylase HDAC6 (Homo sapiens) (UniProt Q9UBN7); assay: Inhibition of human HDAC6 in human WM164 cells increase in acetylated alpha-tubulin levels at 0.1 to 10 uM by immunoblot analysis; type: cell-based; details: dose microM 0.1-10
# T2 sequence (whole entry): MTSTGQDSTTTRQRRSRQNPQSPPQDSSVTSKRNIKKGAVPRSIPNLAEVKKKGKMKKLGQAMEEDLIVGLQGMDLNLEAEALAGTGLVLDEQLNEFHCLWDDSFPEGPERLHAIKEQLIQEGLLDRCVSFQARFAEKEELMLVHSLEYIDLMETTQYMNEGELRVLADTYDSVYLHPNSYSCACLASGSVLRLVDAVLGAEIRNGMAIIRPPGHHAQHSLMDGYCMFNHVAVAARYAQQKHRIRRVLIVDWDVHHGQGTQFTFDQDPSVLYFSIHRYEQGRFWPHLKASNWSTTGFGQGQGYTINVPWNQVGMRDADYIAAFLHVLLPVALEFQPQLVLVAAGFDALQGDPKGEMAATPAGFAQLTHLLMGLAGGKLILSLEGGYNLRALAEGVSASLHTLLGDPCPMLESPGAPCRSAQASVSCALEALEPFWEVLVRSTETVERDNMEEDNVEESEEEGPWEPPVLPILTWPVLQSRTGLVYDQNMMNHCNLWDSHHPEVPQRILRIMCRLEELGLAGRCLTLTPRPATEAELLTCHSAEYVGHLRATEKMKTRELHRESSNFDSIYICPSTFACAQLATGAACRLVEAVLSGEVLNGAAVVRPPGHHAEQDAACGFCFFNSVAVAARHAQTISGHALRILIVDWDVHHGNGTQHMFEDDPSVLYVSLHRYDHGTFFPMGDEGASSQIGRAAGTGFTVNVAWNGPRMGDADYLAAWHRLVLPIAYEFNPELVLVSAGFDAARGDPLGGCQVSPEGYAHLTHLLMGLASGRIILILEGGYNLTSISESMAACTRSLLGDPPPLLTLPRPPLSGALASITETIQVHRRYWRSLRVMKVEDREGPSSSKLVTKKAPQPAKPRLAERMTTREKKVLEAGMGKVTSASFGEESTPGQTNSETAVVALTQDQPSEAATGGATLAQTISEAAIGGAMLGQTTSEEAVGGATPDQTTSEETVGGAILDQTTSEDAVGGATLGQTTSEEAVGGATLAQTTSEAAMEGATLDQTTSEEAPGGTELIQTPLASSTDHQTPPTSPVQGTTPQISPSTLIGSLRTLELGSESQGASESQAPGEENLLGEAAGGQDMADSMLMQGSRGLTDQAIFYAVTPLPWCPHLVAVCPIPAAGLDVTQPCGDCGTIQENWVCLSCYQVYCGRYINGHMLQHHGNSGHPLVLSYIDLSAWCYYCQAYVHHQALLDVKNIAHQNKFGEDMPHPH
# Mus musculus [5] = assay: Immunomodulatory activity in C57BL/6 mouse harboring mouse SM1 cells assessed as reduction in F4/80+ CD206+ pro-tumor M2 macrophages at 25 mg/kg, ip dosed 5 days per week before starting 15 mg/kg, ip anti-PD1 immune checkpoint blockade therapy by flow cytometry; type: functional, organism-based; details: time 5.0 day/week
# Mus musculus [6] = assay: Immunomodulatory activity in C57BL/6 mouse harboring mouse SM1 cells assessed as reduction in natural killer T cells at 25 mg/kg, ip dosed 5 days per week before starting 15 mg/kg, ip anti-PD1 immune checkpoint blockade therapy by flow cytometry; type: functional, organism-based; details: time 5.0 day/week
# HEK293 [7] = assay: Selectivity index, ratio of IC50 for human HDAC1 expressed in HEK293/T17 cells (unknown origin) to human HDAC6 expressed in HEK293/T17 cells; type: cell-based
# SM1 [8] = assay: Antitumor activity against mouse SM1 cells transplanted in C57BL/6 mouse assessed as decrease in tumor burden at 25 mg/kg, ip dosed 5 days per week before starting 15 mg/kg, ip anti-PD1 immune checkpoint blockade therapy; type: functional, organism-based; details: time 5.0 day/week
# HEK293 [9] = assay: Selectivity index, ratio of IC50 for human HDAC5 expressed in HEK293/T17 cells (unknown origin) to human HDAC6 expressed in HEK293/T17 cells; type: cell-based
# SM1 [10] = assay: Potentiation of antitumor immune response in C57BL/6 mouse harboring mouse SM1 cells assessed as decrease in tumor burden at 25 mg/kg, ip dosed 5 days per week before starting 15 mg/kg, ip anti-PD1 immune checkpoint blockade therapy measured on day 14; type: functional, organism-based; details: time 14.0 day
# Mus musculus [11] = assay: Immunomodulatory activity in C57BL/6 mouse harboring mouse SM1 cells assessed as reduction in F4/80+ CD206+ pro-tumor M2 macrophages at 25 mg/kg, ip dosed 5 days per week by flow cytometry; type: functional, organism-based; details: time 5.0 day/week
# Mus musculus [12] = assay: Immunomodulatory activity in C57BL/6 mouse harboring mouse SM1 cells assessed as effect on immunosuppressive T-regs at 25 mg/kg, ip dosed 5 days per week before starting 15 mg/kg, ip anti-PD1 immune checkpoint blockade therapy by flow cytometry; type: functional, organism-based; details: time 5.0 day/week
# SM1 [13] = assay: Cytotoxicity in mouse SM1 cells assessed as reduction in cell viability up to 25 uM; type: functional, cell-based; details: dose microM <=25
# Mus musculus [14] = assay: Immunomodulatory activity in C57BL/6 mouse harboring mouse SM1 cells assessed as increase in natural killer cells at 25 mg/kg, ip dosed 5 days per week before starting 15 mg/kg, ip anti-PD1 immune checkpoint blockade therapy by flow cytometry; type: functional, organism-based; details: time 5.0 day/week
# Mus musculus [15] = assay: Immunomodulatory activity in C57BL/6 mouse harboring mouse SM1 cells assessed as increase in CD8+ central memory cells at 25 mg/kg, ip dosed 5 days per week before starting 15 mg/kg, ip anti-PD1 immune checkpoint blockade therapy by flow cytometry; type: functional, organism-based; details: time 5.0 day/week
compound,measurement,setting,value
NCc1ccc(NC(=O)N(CCCCO)Cc2ccc(C(=O)NO)cc2)cc1,IC50,Histone deacetylase 11,> 50 µM
same,half-life,[1],> 5 h
same,Activity,Mus musculus [2],inactive
same,Activity,Mus musculus [3],inactive
same,inhibition,[4],Dose-dependent effect
same,Activity,Mus musculus [5],Active
same,Activity,Mus musculus [6],Active
same,Ratio IC50,HEK293 [7],293
same,TGI,SM1 [8],Active
same,Ratio IC50,HEK293 [9],8550
same,TGI,SM1 [10],Active
same,Activity,Mus musculus [11],Active
same,Activity,Mus musculus [12],inactive
same,Activity,SM1 [13],inactive
same,Activity,Mus musculus [14],Active
same,Activity,Mus musculus [15],Active
